From ChEMBL document CHEMBL1201862, “PubChem BioAssay data set” (2004)
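Exposure lasted 48 hours, with cells grown in 96-well plates and compounds tested at five concentrations. At the GI50, growth is halved.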 Activity calls are given as the source filed them. No stated cut-off is given here; in the data, active = GI50 up to about 1.1 µM and inactive = higher.

Columns and labels:
Assay in all cases: NCI tumour cell line growth inhibition, 48 h
BT-549 = tested on: BT-549
CAKI-1 = tested on: CAKI-1
HL-60 = tested on: HL-60
HOP-62 = tested on: HOP-62
HT-29 = tested on: HT-29
IGROV-1 = tested on: IGROV-1
K562 = tested on: K562
M14 = tested on: M14
Malme-3M = tested on: Malme-3M
NCI-H23 = tested on: NCI-H23
NCI-H522 = tested on: NCI-H522
OVCAR-4 = tested on: OVCAR-4
RPMI-8226 = tested on: RPMI-8226
SF-295 = tested on: SF-295
SF-539 = tested on: SF-539
SK-OV-3 = tested on: SK-OV-3
SN12C = tested on: SN12C
SNB-19 = tested on: SNB-19
SNB-75 = tested on: SNB-75
UO-31 = tested on: UO-31

| Compound | GI50 (BT-549) | GI50 (CAKI-1) | GI50 (HL-60) | GI50 (HOP-62) | GI50 (HT-29) | GI50 (IGROV-1) | GI50 (K562) | GI50 (M14) | GI50 (Malme-3M) | GI50 (NCI-H23) | GI50 (NCI-H522) | GI50 (OVCAR-4) | GI50 (RPMI-8226) | GI50 (SF-295) | GI50 (SF-539) | GI50 (SK-OV-3) | GI50 (SN12C) | GI50 (SNB-19) | GI50 (SNB-75) | GI50 (UO-31) |
| --- | --- | --- | --- | --- | --- | --- | --- | --- | --- | --- | --- | --- | --- | --- | --- | --- | --- | --- | --- | --- |
| COc1cccc2c(=O)c3c(n(C)c12)OC(C(C)C)C3 (stereo not drawn) | > 100 µM (inactive) | 42.8 µM (inactive) | 69.7 µM (inactive) | > 100 µM (inactive) | > 100 µM (inactive) | 42.6 µM (inactive) | 27.5 µM (inactive) | > 100 µM (inactive) | > 100 µM (inactive) | > 100 µM (inactive) | > 100 µM (inactive) | 22.5 µM (inactive) | 46.7 µM (inactive) | > 100 µM (inactive) | > 100 µM (inactive) | > 100 µM (inactive) | > 100 µM (inactive) | 69.7 µM (inactive) | > 100 µM (inactive) | 40.7 µM (inactive) |
| COC(=O)C(Cc1ccccc1)NS(=O)(=O)c1ccc(-c2c3nc(c(-c4ccc(S(=O)(=O)NC(Cc5ccccc5)C(=O)OC)cc4)c4ccc([nH]4)c(-c4ccc(S(=O)(=O)NC(Cc5ccccc5)C(=O)OC)cc4)c4nc(c(-c5ccc(S(=O)(=O)NC(Cc6ccccc6)C(=O)OC)cc5)c5ccc2[nH]5)C=C4)C=C3)cc1 (stereo not drawn) | > 100 µM (inactive) | > 100 µM (inactive) | > 100 µM (inactive) | 60.8 µM (inactive) | > 100 µM (inactive) | > 100 µM (inactive) | > 100 µM (inactive) | > 100 µM (inactive) | > 100 µM (inactive) | > 100 µM (inactive) | > 100 µM (inactive) | > 100 µM (inactive) | > 100 µM (inactive) | 54.6 µM (inactive) | > 100 µM (inactive) | > 100 µM (inactive) | > 100 µM (inactive) | 40.9 µM (inactive) | 12.5 µM (inactive) | > 100 µM (inactive) |
| CC12CCCCC1=C(F)C(F)(F)S2 (stereo not drawn) | 19.1 µM (inactive) | 21.5 µM (inactive) | 6.64 µM (inactive) | 63.8 µM (inactive) | 20.8 µM (inactive) | > 71.9 µM (inactive) | 17.5 µM (inactive) | 37.6 µM (inactive) | 24.4 µM (inactive) | 52.1 µM (inactive) | 21.5 µM (inactive) | 48.3 µM (inactive) | 7.46 µM (inactive) | 41.9 µM (inactive) | > 70.6 µM (inactive) | > 100 µM (inactive) | > 57.7 µM (inactive) | > 100 µM (inactive) | > 70.6 µM (inactive) | 15 µM (inactive) |
| CC(=O)O[C@H]1C(=O)[C@@]2(C)[C@H]([C@H](OC(=O)C3CCCCC3)[C@]3(O)C[C@H](OC(=O)[C@H](O)[C@@H](NC(=O)OC(C)(C)C)c4ccccc4)C(C)=C1C3(C)C)[C@]1(OC(C)=O)CO[C@@H]1C[C@@H]2O | 0.0134 µM (active) | – | 0.00125 µM (active) | 0.0181 µM (active) | 0.00335 µM (active) | 0.00348 µM (active) | 0.00275 µM (active) | 0.00724 µM (active) | 0.177 µM (active) | 0.0261 µM (active) | 0.00918 µM (active) | 10.2 µM (inactive) | 0.00457 µM (active) | 0.027 µM (active) | 0.00298 µM (active) | 0.0151 µM (active) | 0.0385 µM (active) | 0.0326 µM (active) | 0.402 µM (active) | 0.849 µM (active) |
| CC(C)(C)OC(=O)c1ccc(NCC2=C(Br)C(=O)C=CC2=O)cc1 | 11.4 µM (inactive) | 11.6 µM (inactive) | 1.79 µM (inactive) | 37 µM (inactive) | 17.5 µM (inactive) | 24.2 µM (inactive) | 11.7 µM (inactive) | 27.5 µM (inactive) | 14.9 µM (inactive) | 19.6 µM (inactive) | 4.47 µM (inactive) | 14.1 µM (inactive) | 10.3 µM (inactive) | 65.9 µM (inactive) | 21.5 µM (inactive) | > 64.9 µM (inactive) | 18.7 µM (inactive) | > 54.7 µM (inactive) | 39.5 µM (inactive) | 14 µM (inactive) |
| N#CCC1COc2ccccc2O1 (stereo not drawn) | > 10 µM (inactive) | > 10 µM (inactive) | > 10 µM (inactive) | > 10 µM (inactive) | > 10 µM (inactive) | > 10 µM (inactive) | > 10 µM (inactive) | > 10 µM (inactive) | > 10 µM (inactive) | > 10 µM (inactive) | > 10 µM (inactive) | > 10 µM (inactive) | > 10 µM (inactive) | > 10 µM (inactive) | > 10 µM (inactive) | > 10 µM (inactive) | > 10 µM (inactive) | > 10 µM (inactive) | > 10 µM (inactive) | – |
| NC(=S)N/N=C/C1NCCC2CCCCC21 (stereo not drawn) | 0.834 µM (active) | 0.0715 µM (active) | 0.291 µM (active) | 0.0938 µM (active) | 2.86 µM (inactive) | 0.689 µM (active) | 0.617 µM (active) | 0.17 µM (active) | 0.254 µM (active) | 0.133 µM (active) | 0.318 µM (active) | 1.73 µM (inactive) | 0.279 µM (active) | 0.0673 µM (active) | 0.0272 µM (active) | 0.37 µM (active) | 0.167 µM (active) | 0.35 µM (active) | 24.2 µM (inactive) | 0.34 µM (active) |
